Series [1] deals with IGFBP-1 in rat primary hepatocytes. The series is described as follows: IGFBP-1 synthesis in rat primary hepatocytes (Western blot). The format is cell-based. (In general: Immunoblotting shows a protein as a band on a membrane.)
Series [2] concerns PRL-1 and Apolipoprotein AIV. Nature of the series: Northern blot validation of Atlas microarray results in liver biopsies. Type of series: in vivo, rat. To be noted: TAA vs TAA plus halofuginone.
For series [3], the system named is collagen α1(I) gene expression. Conditions: skin fibroblasts in culture, incl. from scleroderma or cGVHD patients; cited from earlier work.
The subject of series [4] is rats insulted with dimethylnitrosamine (DMN) or thioacetamide (TAA). Conditions: cited from earlier work.
The test system of series [5] is IGFBP-1 in HepG2, Huh-7, Hep3B, Det551, ROS and HSC cells. The series is described as follows: IGFBP-1 synthesis in various cell types (Northern and Western blot). The format is cell-based, human; rat. To be noted: 50 nM halofuginone, serum-free medium, hepatocyte lines vs fibroblasts, osteoblasts.
The subject of another series is HepG2 cells. The series is described as follows: HepG2 cell proliferation (cell number). To be noted: 24 h, halofuginone at concentration that affect IGFBP-1 synthesis.
In the next series the test system is stellate cells (HSC-T6). The series is described as follows: Stellate cell motility assay (phagokinetic tracks). Conditions: conditioned medium of HepG2 treated with 50 nM halofuginone (contains IGFBP-1) added to HSC.
Another series concerns IGFBP-1 gene expression. Nature of the series: Northern blot and in situ hybridization of liver biopsies with IGFBP-1 probe.
Series [6] concerns rats with TAA-induced liver fibrosis.
For the next series, the system named is IGFBP-1 in HepG2 cells. Nature of the series: IGFBP-1 gene expression and secretion in HepG2 cells, dose and time response.
Series [7] has as its system TAA-induced cirrhotic liver. Nature of the series: Liver regeneration after 70% partial hepatectomy in TAA-induced cirrhotic rats.
For another series, the system named is IGFBP-3 mRNA. Nature of the series: Northern blot of liver biopsies with IGFBP-3 probe.

In the case of `O=C(CC1NCCC[C@H]1O)Cn1cnc2cc(Br)c(Cl)cc2c1=O` (stereo in doubt) [halofuginone, 7-bromo-6-chloro-3-[3-(3-hydroxy-2-piperidinyl)-2-oxopropyl]-4(3H)-quinazolinone], the “IGFBP-1 synthesis (Western blot)” value in series [1] (halofuginone 1 nM, 24 h) is “increased the synthesis of IGFBP-1”. Further, the “PRL-1 and Apolipoprotein AIV expression by Northern blotting” value in series [2] is “confirmed the Atlas microarray findings”. Moreover, the “collagen α1(I) gene expression and collagen production” value in [3] is “attenuated”. Moreover, in series [4] (given to rats with established fibrosis), the fibrotic condition entry is “almost complete resolution”. Also, the “HSC activation, increase in collagen α1(I) gene expression and collagen deposition” value in series [4] (rats insulted with DMN or TAA) is “prevent HSC activation and abolish the increase in collagen α1(I) gene expression and collagen deposition”. Also, the “cell types responding with IGFBP-1 gene expression and synthesis” value in series [5] was “Only cells of the hepatocyte origin demonstrated increased IGFBP-1 gene expression and synthesis”. Also, the “cell proliferation (cell number)” value in the series with HepG2 cells is recorded as “significant reduction in cell proliferation”. Besides, the “HSC cell motility (track area)” value in the series with stellate cells (HSC-T6) is listed as “significant inhibition in cell motility”. Besides, the “effect on TAA-induced down-regulation of IGFBP-1 gene expression (Northern blot)” value in the series with IGFBP-1 gene expression (after 2 and 4 weeks of treatment) was “prevented the TAA-induced down-regulation”. For the same compound, in the series on IGFBP-1 gene expression (after one week of TAA treatment), the “effect on TAA-induced reduction in IGFBP-1 gene expression (Northern blot)” value is “without any effect”. Besides, in the series with IGFBP-1 gene expression (halofuginone alone), the “level of IGFBP-1 mRNA (Northern blot)” value was “slight effect”. In the series on IGFBP-1 gene expression (liver sections after 4 weeks, TAA plus halofuginone), the “IGFBP-1 gene expression by in situ hybridization, TAA-induced decrease” value is “prevented”. Also, the “Ishak staging of fibrosis (grade)” value in [6] (TAA 200 mg/kg twice weekly plus halofuginone 5 ppm in the diet, 4 weeks, TAA alone grade 5-6) was 1-2. Moreover, the “αSMA-positive (activated) stellate cells” value in series [6] (TAA plus halofuginone given orally (5 ppm in diet), 4 weeks, immunohistochemistry) was “only traces”. Also, the “collagen level (Sirius red)” value in series [6] (TAA plus halofuginone, 4 weeks) is “low levels of collagen”. The “level of TIMP-2” value in [6] (TAA plus halofuginone, 4 weeks, compared with TAA-treated rats) was “reduced”. The “collagen α1(I) gene expression by remaining stellate cells” value in [6] (TAA plus halofuginone, 4 weeks, in situ hybridization) is “low levels”. For the same compound, the “ECM, collagen, αSMA stellate cells, collagen α1(I) expression, TIMP-2” value in series [6] (rat, in vivo) is listed as “No changes”. The “IGFBP-1 gene expression (Northern blot)” value in the series with IGFBP-1 in HepG2 cells (10 nM halofuginone, 24 h, further increase at higher concentrations, no expression without halofuginone) is reported as “increased IGFBP-1 gene expression”. In addition, the “time after halofuginone treatment at which increased IGFBP-1 gene expression was observed” value with IGFBP-1 in HepG2 cells (50 nM halofuginone) was found to be 6 h. In addition, the “time after which IGFBP-1 content in the conditioned media increased” value in the series on IGFBP-1 in HepG2 cells (50 nM halofuginone) was in the range of 10 to 15 h. The “IGFBP-1 in conditioned medium after halofuginone removal” value in the series on IGFBP-1 in HepG2 cells (50 nM halofuginone for 11 h, washed, fresh medium for additional 13 h, compared with untreated cells) is “high levels of IGFBP-1”. Moreover, the “incubation time needed for increase in IGFBP-1 secretion” value in the series with IGFBP-1 in HepG2 cells (50 nM halofuginone, medium replaced, IGFBP-1 detected 23 h later) is “one hour of incubation with halofuginone was sufficient”. In addition, in the series with IGFBP-1 in HepG2 cells (HepG2, 24 h), the “concentration at which an increase in the level of IGFBP-1 in conditioned medium starts (Western blot)” value is given as at least 50 nM. Besides, in series [7] (eight weeks of halofuginone after TAA, 48 hours after 70% PHx, untreated animals 18.8±2.9), the PCNA labeling index was found to be 31.4±6.4. The same compound showed a restituted liver mass in [7] (eight weeks of halofuginone in diet after TAA, 48 hours after 70% PHx, control food group 13.7±4.5, p<0.05) of 24.2±5.7%. The “liver Ishak staging” value in series [7] (halofuginone treatment of TAA cirrhotic rats) is listed as “decrease”. For the same compound, the “IGFBP-3 mRNA levels” value is recorded as “No changes” with IGFBP-3 mRNA (after 1 week of treatment, any of the groups) and “no effect” with IGFBP-3 mRNA (halofuginone alone, any time-points examined). Moreover, the “effect on TAA-induced increase in IGFBP-3 level” value in the series with IGFBP-3 mRNA (after 2 and 4 weeks) is reported as “partially prevented”.

Take `C[C@@H]1C[C@@H]([C@H](O)CC2CC(=O)NC(=O)C2)C(=O)[C@@H](C)C1` [cyclohexamide]: the “effect on halofuginone-dependent increase in IGFBP-1 gene expression” value with IGFBP-1 in HepG2 cells (10 μg/ml cyclohexamide with 50 nM halofuginone, 24 h) is “annulled”.

On to “insulin: insulin, comparator incubated with rat primary hepatocytes”, for which, in series [1] (insulin, 24 h (10 nM, 100 nM elsewhere in the source)), the “IGFBP-1 synthesis (Western blot)” value was “reduction in IGFBP-1 synthesis”.

The record behind these values is patent US20060258692A1, “Quinazolinone compositions for regulation of gene expression related to pathological processes” (priority 2002, published 2006).
